“Also recorded” adds a separate entry of the source. Like-named read-outs stand apart in the source and are kept apart here.
What was measured:
EphA5 = test: Binding selectivity of phage clones isolated on EphA5
Description: (§1) Alternatively, peptides and phage were co-incubated together.
(§2) In this example additional phage panning experiments were performed to identify peptides that bind to EphA5 and EphA7 (FIG. 18A). EphA5 and EphA7 are two EphA receptors that are closely related to EphA4 but are differentially expressed in the developing and adult nervous system (Ellis, J. et al. 1995 Mechanisms of Development 52:319-341; Mori, T. et al 1995 Brain Res Mol Brain Res 34:154-160; Olivieri, G. & Miescher, G. C. 1999 J Histochem Cytochem 47:855-861; Zhang, J. H. et al 1997 Brain Res Mol Brain Res 47:202-214). Three different peptide sequences that bind each receptor were identified.

EphA2 [1] = target: T1, EphA2 (Mus musculus, UniProt Q03145); test: Peptide competition with phage clones on immobilized EphA2 Fc; type: binding
T1 construct: purchased R&D Systems
Target sequence in this assay (Q03145 26-538 limits assumed): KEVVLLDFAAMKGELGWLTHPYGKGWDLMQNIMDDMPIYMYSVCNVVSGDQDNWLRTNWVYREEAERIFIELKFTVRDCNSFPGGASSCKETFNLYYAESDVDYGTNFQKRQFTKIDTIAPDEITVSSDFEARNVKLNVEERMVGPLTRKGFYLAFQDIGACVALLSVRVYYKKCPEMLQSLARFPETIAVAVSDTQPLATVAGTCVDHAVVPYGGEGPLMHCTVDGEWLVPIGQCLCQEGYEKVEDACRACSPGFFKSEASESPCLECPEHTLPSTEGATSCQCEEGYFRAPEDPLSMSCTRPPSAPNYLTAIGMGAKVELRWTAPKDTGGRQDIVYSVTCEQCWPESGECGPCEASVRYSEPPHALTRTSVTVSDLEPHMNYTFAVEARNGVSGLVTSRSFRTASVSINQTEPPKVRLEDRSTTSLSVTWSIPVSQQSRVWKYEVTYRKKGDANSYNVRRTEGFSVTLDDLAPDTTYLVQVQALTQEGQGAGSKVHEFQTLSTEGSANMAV
Description: A histidine-tagged mouse EphA2 Fc fusion protein (R&D Systems, Minneapolis, Minn.) was incubated overnight at 4° C. in nickel-nitrilotriacetic acid (Ni-NTA)-coated ELISA plates at concentrations of 1-10 μg/ml in Tris-buffered saline (TBS) (150 mM NaCl, 50 mM Tris-HCl, pH 7.5). Wells were blocked with 0.5% bovine serum albumin (BSA) in TBS, and rinsed with binding buffer (TBS, 1 mM CaCl2, 0.1% Tween 20).
For peptide competition assays with phage clones, Ni-NTA microtiter wells coated with EphA2 Fc were incubated for 1 hour at room temperature with phage clones diluted between 1:600 and 1:9,000 in binding buffer (100 μl/well). Unbound phage were washed away and competing peptides were added for 1 hour. Alternatively, peptides and phage were co-incubated together.

EphA receptors = test: Immobilized biotinylated synthetic peptide capturing Eph receptor Fc (ELISA); type: binding; settings: Fc fusion proteins of EphA receptors
Description: (§3) Bound Eph receptors were detected with anti-human Fc antibody conjugated to alkaline phosphatase (AP) (Promega, Madison, Wis.). […] Substrates were 2,2′-azino-bis(3-ethylbenzthiazoline-6-sulfonic acid) for horseradish peroxidase and p-nitrophenyl phosphate for AP.

EphA2 [2] = target: T1, EphA2; test: as above; type: binding; settings: biotinylated peptide on streptavidin-coated wells
Target sequence in this assay (Q03145 with tags, fused parts or gaps limits assumed): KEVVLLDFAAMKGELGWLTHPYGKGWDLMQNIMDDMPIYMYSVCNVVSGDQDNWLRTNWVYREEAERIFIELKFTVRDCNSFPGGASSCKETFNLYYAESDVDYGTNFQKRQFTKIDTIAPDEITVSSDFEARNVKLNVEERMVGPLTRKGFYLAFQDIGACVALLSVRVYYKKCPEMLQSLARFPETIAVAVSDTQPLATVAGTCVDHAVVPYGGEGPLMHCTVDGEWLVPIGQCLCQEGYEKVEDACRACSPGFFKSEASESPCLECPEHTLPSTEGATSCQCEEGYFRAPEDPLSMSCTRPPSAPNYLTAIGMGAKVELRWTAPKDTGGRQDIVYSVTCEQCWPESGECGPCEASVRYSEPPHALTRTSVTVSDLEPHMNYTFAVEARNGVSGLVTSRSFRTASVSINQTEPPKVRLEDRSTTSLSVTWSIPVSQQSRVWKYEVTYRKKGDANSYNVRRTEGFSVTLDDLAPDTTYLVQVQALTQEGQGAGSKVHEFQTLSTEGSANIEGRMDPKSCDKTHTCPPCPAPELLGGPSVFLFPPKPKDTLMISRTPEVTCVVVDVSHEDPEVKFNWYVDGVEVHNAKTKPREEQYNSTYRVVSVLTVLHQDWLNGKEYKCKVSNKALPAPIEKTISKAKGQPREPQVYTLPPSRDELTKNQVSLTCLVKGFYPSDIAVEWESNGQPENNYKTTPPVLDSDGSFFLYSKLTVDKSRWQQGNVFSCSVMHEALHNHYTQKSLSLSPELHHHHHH
Description: as §3

EphA2 [3] = target: T1, EphA2; test: Ephrin-AP binding to Eph receptor-coated wells in presence of peptide; settings: ephrin-A5-AP, ephrin-A6-AP
Target sequence in this assay (Q03145 with tags, fused parts or gaps limits assumed): as above
Description: Ephrin binding to Eph receptor-coated plates was quantified using alkaline phosphatase (AP) fusion proteins of ephrin-A5 and ephrin-A6 (plasmids encoding these AP-fusions are described above). Diluted cell culture supernatants containing ephrin-A5-AP and ephrin-A6-AP were co-incubated with peptides in microtiter wells coated with EphA2 Fc or EphA4 Fc. Ephrins remaining bound after washing were detected by measuring AP activity.

EphA7 = test: Binding selectivity of phage clones isolated on EphA7
Description: as §1, §2

EphB4 [4] = test: Binding specificity of phage clones on Eph receptor-coated plates; settings: phage clones displaying the peptides
Description: (§4) Phage binding to Eph receptor-coated plates was quantified using an anti-phage antibody conjugated to horseradish peroxidase (M13 phage detection kit, Amersham Pharmacia Biotech., Piscataway, N.J.).

EphB4 [5] = test: Binding specificity of synthetic peptides; settings: immobilized synthetic peptide
Description: as §3

EphA4 [6] = target: T2, EphA4 (Homo sapiens, UniProt P54764); test: Binding selectivity of phage clones isolated on EphA4; settings: compared to other EphA or EphB4 receptors
T2 construct: immobilized EphA4 receptor extracellular domain fused to a human Fc region
T2 sequence (P54764 20-547 limits assumed, species assumed): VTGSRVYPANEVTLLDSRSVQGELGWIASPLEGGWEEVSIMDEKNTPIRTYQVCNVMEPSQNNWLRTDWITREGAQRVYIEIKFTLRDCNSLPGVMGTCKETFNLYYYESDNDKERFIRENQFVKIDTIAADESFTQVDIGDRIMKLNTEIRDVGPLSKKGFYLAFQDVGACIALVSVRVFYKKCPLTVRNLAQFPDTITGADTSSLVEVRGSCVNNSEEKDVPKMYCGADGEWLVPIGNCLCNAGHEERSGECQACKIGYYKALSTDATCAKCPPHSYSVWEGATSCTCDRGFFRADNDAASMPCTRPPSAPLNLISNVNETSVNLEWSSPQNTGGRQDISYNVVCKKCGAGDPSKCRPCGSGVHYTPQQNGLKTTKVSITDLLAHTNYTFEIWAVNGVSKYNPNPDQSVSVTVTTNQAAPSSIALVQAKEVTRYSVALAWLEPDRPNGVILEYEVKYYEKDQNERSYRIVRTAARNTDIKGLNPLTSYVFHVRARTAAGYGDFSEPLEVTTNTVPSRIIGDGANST
Description: as §4
In this example phage display was used to identify peptides that bind to an EphA4 receptor. An M13 phage library displaying random 12-mer peptides was panned on the immobilized EphA4 receptor extracellular domain fused to a human Fc region (FIG. 12A). The phage clones remaining bound to EphA4 were eluted with a low pH solution and amplified.

EphB receptors = test: Immobilized biotinylated synthetic peptide capturing Eph receptor Fc (ELISA); type: binding
Description: as §3

EphA4 [7] = target: T2, EphA4; test: Ephrin-AP binding to Eph receptor-coated wells in presence of peptide; settings: for Antagonism of ephrin-A5 binding to EphA4: ephrin-A5 AP
Description: Diluted cell culture supernatants containing ephrin-A5-AP and ephrin-A6-AP were co-incubated with peptides in microtiter wells coated with EphA2 Fc or EphA4 Fc. Ephrins remaining bound after washing were detected by measuring AP activity.

MAP kinase = MAP kinase phosphorylation in HUVE cells (immunoblot); type: cell-based, human
Excerpt: Cell lysates were used to immunoprecipitate EphA2 as described above or probed by immunoblotting with anti-phospho-p44/p42 MAPK antibody (Cell Signaling Technology, Beverly, Mass.) followed by an anti-mouse IgG peroxidase-conjugated antibody (Arnersham) and re-probed with an anti-ERK2 antibody (Santa Cruz Biotechnology, Santa Cruz, Calif.) followed by a secondary anti-rabbit IgG peroxidase-conjugated antibody (Amersham). Erk2 (p42 MAP kinase) is the major phosphorylated form present. EphA2 was immunoprecipitated (IP) and probed by immunoblotting with anti-phosphotyrosine (PTyr) or anti-EphA2 antibodies.

EphA4 [8] = target: T3, EphA4 (Mus musculus, UniProt Q03137); test: Ephrin-A3 Fc induced EphA4 tyrosine phosphorylation in hippocampal slices; type: cell-based; settings: micromolar peptide
T3 construct: antagonize ephrin-A3-induced tyrosine phosphorylation of endogenous EphA4; from tissue; host or cells: mouse hippocampal slices
T3 sequence (Q03137 20-986): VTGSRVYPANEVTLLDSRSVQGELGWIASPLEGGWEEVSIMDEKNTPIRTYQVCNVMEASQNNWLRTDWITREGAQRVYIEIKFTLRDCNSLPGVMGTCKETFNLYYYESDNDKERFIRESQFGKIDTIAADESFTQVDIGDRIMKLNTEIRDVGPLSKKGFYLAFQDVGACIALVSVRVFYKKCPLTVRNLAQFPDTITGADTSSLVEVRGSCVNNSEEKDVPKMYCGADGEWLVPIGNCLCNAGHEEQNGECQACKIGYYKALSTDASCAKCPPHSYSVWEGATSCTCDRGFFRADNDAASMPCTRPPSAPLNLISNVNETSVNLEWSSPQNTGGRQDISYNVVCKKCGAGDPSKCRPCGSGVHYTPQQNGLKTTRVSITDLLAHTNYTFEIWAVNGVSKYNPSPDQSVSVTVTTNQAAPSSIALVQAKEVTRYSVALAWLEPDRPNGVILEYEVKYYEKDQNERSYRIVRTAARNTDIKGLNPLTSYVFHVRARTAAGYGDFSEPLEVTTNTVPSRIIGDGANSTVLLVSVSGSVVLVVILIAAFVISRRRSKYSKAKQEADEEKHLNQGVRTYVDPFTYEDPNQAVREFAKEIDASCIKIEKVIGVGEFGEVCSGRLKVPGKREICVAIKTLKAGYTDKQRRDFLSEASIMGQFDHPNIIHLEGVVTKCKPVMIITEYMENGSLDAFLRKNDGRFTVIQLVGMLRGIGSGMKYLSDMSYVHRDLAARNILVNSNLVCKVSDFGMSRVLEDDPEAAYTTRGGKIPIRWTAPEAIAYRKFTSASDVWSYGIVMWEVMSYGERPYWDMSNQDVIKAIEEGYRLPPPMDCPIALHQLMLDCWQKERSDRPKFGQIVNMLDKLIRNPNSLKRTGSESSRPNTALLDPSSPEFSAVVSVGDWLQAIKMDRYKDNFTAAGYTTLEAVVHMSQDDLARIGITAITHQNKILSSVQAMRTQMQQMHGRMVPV

EphA4 [9] = target: T2, EphA4; test: Binding specificity of synthetic peptides; settings: compared to other EphA and EphB receptors
Description: as §3

neural crest cells = test: Neural crest cell migration assay in chick trunk explants; type: cell-based; settings: 24 hours, 13 μM KYL peptide or 10 μg/ml EphA4-Fc
Description: In this example to address whether the EphA4-binding peptides can inhibit endogenous ephrin-EphA4 physiological function, a neural crest cell migration assay (McLennan, R. & Krull, C. E. 2002 Gene Expr 10:295-305) was utilized. […] The migration of neural crest cells was determined by staining for HNK-1 for neural crest cells and ephrin-B1 to label the caudal sclerotome. […] Neural crest cells migrated properly into the rostral sclerotome in explants treated with control Fc.

With WDCNGPYCHWLG (WDC peptide) the “Binding selectivity of peptides isolated on EphA5” value (from here on “Binding selectivity”) (EphA5) was “selective binding to this receptor” and the “Binding selectivity” value (EphA5; listed as WDC) was “selectively bind to EphA5”.
In the case of “A3 peptide: Twelve-mer synthetic peptide corresponding to the G-H loop of ephrin-A3”, the “Competition of synthetic peptide with phage binding to immobilized EphA2” value (shortened to “Competition of synthetic peptide”) (EphA2 [1]) is reported as “did not inhibit phage binding”, the “Binding of immobilized synthetic peptide to EphA receptors (other than or including EphA2)” value (from here on “Binding … (other than or including EphA2)”) (EphA receptors) is reported as “bind promiscuously to all EphA receptors” and the “Binding of immobilized synthetic peptide to EphA2 Fc” value (“Binding … to EphA2 Fc” below) (EphA2 [2]) is reported as “bind EphA2, albeit more weakly than the YSA peptide”. The “Inhibition of ephrin binding to immobilized EphA2” value (shortened to “Inhibition … to immobilized EphA2”) (EphA2 [3]) was “did not compete with ephrin-A5 for binding to EphA2”.
For WTFPVLWDDKHP (WTF peptide), the “Binding selectivity” value (EphA5) was “also binds to EphA6” and the “Binding selectivity” value (EphA5; listed as WTF) was “binds to both EphA5 and EphA6”.
With SLRDTYMRAKVL (SLR peptide) the “Binding selectivity” value (EphA5) was “selective binding to this receptor” and the “Binding selectivity” value (EphA5; listed as SLR) was “selectively bind to EphA5”.
With SVSVGMKPSPRP (SVS peptide) the “Binding to further EphA receptors of EphA7-binding peptides” value (shortened to “Binding to further EphA receptors”) (EphA7) was “also binds to EphA3 and EphA6”.
With SGHQLLLNKMPN (SGH peptide) the “Binding of phage clones to EphB4 Fc” value (EphB4 [4]) was “bound to EphB4 Fc”.
VADRYAVYWNSSNPR (extended A5 peptide) was tested, and the “Binding … to EphA2 Fc” value (EphA2 [2]) was “exhibits a similar weak binding”.
With DALNDWLLFRPW (DAL peptide) the “Binding of phage clones to EphB4 Fc” value (EphB4 [4]) was “bound to EphB4 Fc” and the “EphB4 bound compared to other EphB family receptors” value (EphB4 [5]) was “four-fold”.
With IPWTQHMAMSPM (IPW peptide) the “Binding of phage clones to EphB4 Fc” value (EphB4 [4]) was “bound to EphB4 Fc”.
With KHLPFYPHPTSP (EphA7-binding peptide) the “Binding to further EphA receptors” value (EphA7) was “also binds to EphA3, EphA5, and EphA6”.
For WASHAPYWPHPP (EphA7-binding peptide), the “Binding to further EphA receptors” value (EphA7) was “also binds to EphA3”.
In the case of NHWLDTLFPMHM (EphA4-binding peptide), the “Binding preference of phage clones for EphA4” value (shortened to “Binding preference”) (EphA4 [6]) is reported as “preferential binding to EphA4”.
CSCC[C@H](NC(=O)[C@H](CCSC)NC(=O)[C@@H]1CCCN1C(=O)[C@@H](NC(=O)[C@H](CO)NC(=O)[C@H](CC(=O)O)NC(=O)[C@@H]1CCCN1C(=O)[C@H](Cc1ccc(O)cc1)NC(=O)[C@H](C)NC(=O)[C@H](CO)NC(=O)[C@@H](N)Cc1ccc(O)cc1)C(C)C)C(=O)N[C@@H](CO)C(=O)O [YSA] was tested, and the “Competition of synthetic peptide” value (EphA2 [1]) was “competes with SWL phage”, the “Binding … (other than or including EphA2)” value (EphA receptors) was “not to other EphA receptors” and the “Binding … to EphA2 Fc” value (EphA2 [2]) was “bound to EphA2”. The “Binding of synthetic peptide to receptors of the EphB family” value (EphB receptors) was “lack the ability to bind to receptors of the EphB family”, the “Inhibition of A-ephrin binding to immobilized EphA4 by EphA2-binding peptides” value (EphA4 [7]; ephrin-A5-AP, ephrin-A6-AP) was “not EphA4” and the MAP kinase activation (MAP kinase) was “activates a previously described Eph2A signaling pathway that suppresses MAP kinase activation”. The “Inhibition … to immobilized EphA2” value (EphA2 [3]) was “inhibit, in a concentration dependent manner”.
VTMEAINLAFPG (VTM peptide) was tested, and the “Antagonism of ephrin-A5 binding to EphA4” value (EphA4 [7]) was “antagonize ephrin-A5 binding to EphA4 in a concentration-dependent manner”, the “Mode of inhibition of ephrin binding” value (EphA4 [7]; inhibition curves at different ephrin concentrations) was “competitively inhibits ephrin binding” and the “Ephrin-A3-induced tyrosine phosphorylation (activation) of endogenous EphA4” value (EphA4 [8]) was “antagonize ephrin-A3 induced activation of endogenous EphA4”. For the same molecule, the “Binding preference” value (EphA4 [6]) was “preferential binding to EphA4”.
In the case of “A5 peptide: Twelve-mer synthetic peptide corresponding to the A-A′ β-strand of ephrin-A5”, the “Competition of synthetic peptide” value (EphA2 [1]) is reported as “enhanced both phage and ephrin-A5 binding to EphA2”, the “Binding … (other than or including EphA2)” value (EphA receptors) is reported as “bind promiscuously to all EphA receptors” and the “Binding … to EphA2 Fc” value (EphA2 [2]) is reported as “bind EphA2, albeit more weakly than the YSA peptide”. For the same molecule, the “Inhibition … to immobilized EphA2” value (EphA2 [3]) was “enhanced both phage and ephrin-A5 binding to EphA2”.
KYLPYWPVLSSL (KYL peptide) was tested, and the “Antagonism of ephrin-A5 binding to EphA4” value (EphA4 [7]) was “antagonize ephrin-A5 binding to EphA4 in a concentration-dependent manner”, the “Peptide concentration that almost completely inhibited ephrin binding” value (EphA4 [7]; ephrin-A5 AP binding to EphA4) was 1 µM and the “Selectivity of block of ephrin-A5 AP binding to EphA4 compared to other EphA receptors” value (EphA4 [7]; peptide 50 μM) was “preferentially”. The “Ephrin-A3-induced tyrosine phosphorylation (activation) of endogenous EphA4” value (EphA4 [8]) was “blocked EphA4 tyrosine phosphorylation at lower concentrations than the APY and VTM peptides; also recorded: antagonize ephrin-A3 induced activation of endogenous EphA4”, the “Selectivity of synthetic peptide for EphA4” value (EphA4 [9]) was “exhibited some binding to other EphA and EphB receptors” and the “Migration of neural crest cells” value (neural crest cells) was “ectopic migration of neural crest cells into the caudal half-sclerotome”. The “Binding preference” value (EphA4 [6]) was “preferential binding to EphA4”.

Source: patent US8461119B2, “Agents that modulate Eph receptor activity” (The Burnham Institute, priority 2002, dated 2013)
